Among the test systems are SF-268; Malme-3M; NCI-H226; OVCAR-8; OVCAR-4; HT-29; SF-295; A549; RPMI-8226; SNB-75; SF-539; HCT-15; NCI-H460; EKVX; SK-OV-3; SK-MEL-5.
Test in all cases: growth of human tumour cells (NCI), 48 h

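Method: 48-hour compound exposure of cells in 96-well plates, five concentrations, linear interpolation of endpoints. Here, GI50 denotes the concentration required for 50% inhibition of growth.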 Calls of active or inactive are those of the source. No stated cut-off is given here; in the data, active = GI50 up to about 1.1 µM and inactive = higher.

The record followed here is ChEMBL document CHEMBL1201862, “PubChem BioAssay data set” (2004).

In the case of `O=C1c2ccccc2C(=O)c2c(O)c(NCCCNCCO)cc(O)c21`, the GI50 is 7.91 µM (inactive) with SF-268; 17.1 µM (inactive) with Malme-3M; 5.61 µM (inactive) in the assay with NCI-H226; 5.79 µM (inactive) in the assay on OVCAR-8; 10.2 µM (inactive) in the assay with OVCAR-4; 4.16 µM (inactive) in the assay with HT-29. For the same compound, the GI50 in the assay with SF-295 is 10.7 µM (inactive); in the assay with A549 it was 10.3 µM (inactive); in the assay with RPMI-8226, 7.59 µM (inactive); in the assay with SNB-75, 12.9 µM (inactive); in the assay with SF-539 it was 9.38 µM (inactive); in the assay with HCT-15, 5.83 µM. Moreover, the GI50 was 3.33 µM (inactive) in the assay with NCI-H460, 13.7 µM (inactive) in the assay with EKVX and 12.4 µM (inactive) with SK-OV-3.

Turning to `CC(=O)Nc1ccc(-c2nnc(SCC(=O)Nc3cccc(Cl)c3)o2)cc1`, the GI50 was 13.7 µM (inactive) with SF-268; 12.4 µM (inactive) with Malme-3M; 17.7 µM (inactive) in the assay on NCI-H226; 33.2 µM (inactive) in the assay on OVCAR-8; 13.9 µM (inactive) in the assay with SK-MEL-5; 17.9 µM (inactive) with OVCAR-4. In addition, the GI50 with HT-29 is 17.2 µM (inactive); in the assay on SF-295, 18.8 µM (inactive); with A549, 18.7 µM (inactive); in the assay on RPMI-8226, 15 µM (inactive); in the assay on SNB-75, 20 µM (inactive); in the assay on SF-539, 20.1 µM (inactive). The GI50 is 14.9 µM with HCT-15, 13.1 µM (inactive) with NCI-H460, 25.3 µM (inactive) with EKVX and 38 µM (inactive) in the assay with SK-OV-3.

On to `CC(NS(=O)(=O)c1ccc([N+](=O)[O-])cc1)C(=O)O` (stereo unspecified), for which the GI50 with SF-268, in the assay with Malme-3M, with NCI-H226, in the assay on OVCAR-8, in the assay on SK-MEL-5 and with OVCAR-4 was > 100 µM (inactive) each time. Also, the GI50 in the assay on HT-29 was > 100 µM (inactive); in the assay on SF-295, > 100 µM (inactive); in the assay with A549 it was > 100 µM (inactive); in the assay on RPMI-8226, > 100 µM (inactive); with SNB-75, 80.7 µM (inactive); with SF-539 it was > 100 µM (inactive). In addition, the GI50 with HCT-15 was over 100 µM; in the assay on NCI-H460, > 100 µM (inactive); in the assay on EKVX it was > 100 µM (inactive); in the assay with SK-OV-3 it was > 100 µM (inactive).

Take `CC(=O)N1CCN(C=S)CC1`: the GI50 in the assay on SF-268, in the assay with Malme-3M, in the assay with NCI-H226, in the assay with OVCAR-8, with SK-MEL-5 and in the assay on OVCAR-4 was > 100 µM (inactive) each time. Also, the GI50 with HT-29, with SF-295, with A549, in the assay on RPMI-8226, in the assay on SNB-75 and with SF-539 was > 100 µM (inactive) in each case. Further, the GI50 was over 100 µM in the assay on HCT-15, > 100 µM (inactive) in the assay with NCI-H460, > 100 µM (inactive) in the assay with EKVX and > 100 µM (inactive) in the assay on SK-OV-3.

With `O=C1[C@@H]2C3C=CC([C@H]4C(=O)N(CO)C(=O)[C@@H]34)[C@@H]2C(=O)N1CO`, the GI50 is > 49.7 µM (inactive) with SF-268; > 100 µM (inactive) in the assay with Malme-3M; > 100 µM (inactive) in the assay with NCI-H226; 35.6 µM (inactive) in the assay with OVCAR-8; 59 µM (inactive) in the assay with SK-MEL-5; > 75.5 µM (inactive) with OVCAR-4. For the same compound, the GI50 was 62.8 µM (inactive) in the assay with HT-29; > 100 µM (inactive) with SF-295; > 64 µM (inactive) with A549; 19.4 µM (inactive) in the assay on RPMI-8226; > 78.2 µM (inactive) in the assay with SNB-75; 47.3 µM (inactive) with SF-539. For the same compound, the GI50 in the assay with HCT-15 was 25.4 µM; in the assay on NCI-H460, 30.2 µM (inactive); with EKVX it was > 100 µM (inactive); with SK-OV-3, > 100 µM (inactive).

With `CCOC(=O)C1=C(C)N(NC(N)=O)C2(N)N(NC(N)=O)C(C)=C(C(=O)OCC)C12C#N` (stereo unspecified), the GI50 in the assay with SF-268, with Malme-3M, with NCI-H226, with OVCAR-8, in the assay on SK-MEL-5 and in the assay on OVCAR-4 was > 100 µM (inactive) in each case. Moreover, the GI50 in the assay with HT-29, in the assay with SF-295, with A549, in the assay with RPMI-8226, in the assay with SNB-75 and in the assay on SF-539 was > 100 µM (inactive) in each case. Further, the GI50 in the assay with HCT-15 was over 100 µM; with NCI-H460 it was > 100 µM (inactive); with EKVX, > 100 µM (inactive); in the assay with SK-OV-3 it was > 100 µM (inactive).

As for `CCCCCC(=O)C(C)C1=Nc2nnc(CCCCCCCc3nnc4n3C(=O)C(C(C)C(=O)CCCCC)=N4)n2C1=O` (stereo unspecified), the GI50 in the assay with SF-268, in the assay on Malme-3M, in the assay with NCI-H226, in the assay on OVCAR-8, with SK-MEL-5 and with OVCAR-4 was > 100 µM (inactive) each time. For the same compound, the GI50 in the assay with HT-29, with SF-295, in the assay with A549, in the assay on RPMI-8226, in the assay on SNB-75 and in the assay with SF-539 was > 100 µM (inactive) throughout. Besides, the GI50 with HCT-15 was over 100 µM; in the assay with NCI-H460, > 100 µM (inactive); in the assay with EKVX, > 100 µM (inactive); in the assay with SK-OV-3, > 100 µM (inactive).

Take `CCOC(=O)c1[nH]c2c(OC)n[n+]([O-])cc2c1[N+](=O)[O-]`: the GI50 with SF-268 was 32 µM (inactive); with Malme-3M it was 18.3 µM (inactive); in the assay on NCI-H226, 26.9 µM (inactive); with OVCAR-8, 19.9 µM (inactive); in the assay with OVCAR-4 it was 19.8 µM (inactive); with HT-29, 15.9 µM (inactive). The GI50 with SF-295 was 37.2 µM (inactive); in the assay on A549 it was 88.5 µM (inactive); with RPMI-8226 it was 18.1 µM (inactive); in the assay on SNB-75, 9.23 µM (inactive); in the assay on SF-539, 27.9 µM (inactive); in the assay with HCT-15, 18.4 µM. The GI50 in the assay on NCI-H460 is 21.1 µM (inactive); in the assay on EKVX, 21.3 µM (inactive); in the assay with SK-OV-3, > 100 µM (inactive).

On to `Cc1c2c(cc[n+]1C)O[B-](c1ccccc1)(c1ccccc1)O2`, for which the GI50 was > 100 µM (inactive) in the assay on SF-268; 65.5 µM (inactive) in the assay with Malme-3M; 48.6 µM (inactive) in the assay on NCI-H226; 67.3 µM (inactive) in the assay with OVCAR-8; 83.4 µM (inactive) with SK-MEL-5; 64.4 µM (inactive) in the assay on OVCAR-4. In addition, the GI50 in the assay on HT-29 is > 100 µM (inactive); in the assay with SF-295, 53.6 µM (inactive); in the assay with A549 it was 84.5 µM (inactive); in the assay with RPMI-8226, 40.2 µM (inactive); in the assay with SNB-75, 22.3 µM (inactive); in the assay with SF-539, 95.9 µM (inactive). For the same compound, the GI50 in the assay with HCT-15 is 38.3 µM; with NCI-H460, 50 µM (inactive); in the assay on EKVX, 26.5 µM (inactive); in the assay on SK-OV-3, 94 µM (inactive).

With `CN(C(=O)C12C3C4C5C3C1(C(=O)C13C6C7C8C6C1C8C73)C5C42)C(C)(C)C` (stereo unspecified), the GI50 in the assay on SF-268, in the assay with Malme-3M, in the assay with NCI-H226, with OVCAR-8, in the assay on SK-MEL-5 and in the assay with OVCAR-4 was > 50 µM (inactive) throughout. Also, the GI50 was > 37.8 µM (inactive) in the assay on HT-29; > 50 µM (inactive) with SF-295; > 30.1 µM (inactive) in the assay on A549; > 27.3 µM (inactive) with RPMI-8226; > 33 µM (inactive) with SNB-75; > 50 µM (inactive) in the assay on SF-539. Further, the GI50 was over 21.3 µM in the assay on HCT-15, > 32.7 µM (inactive) in the assay on NCI-H460, > 50 µM (inactive) in the assay with EKVX and > 50 µM (inactive) in the assay with SK-OV-3.

Regarding `Clc1ccc(C2=Nc3ccccc3SC(c3ccc(Cl)c(Cl)c3)C2)c(Cl)c1` (stereo unspecified), the GI50 was 13.2 µM (inactive) in the assay on SF-268; 16.1 µM (inactive) with Malme-3M; 19 µM (inactive) in the assay with NCI-H226; 15.3 µM (inactive) in the assay with OVCAR-8; 18 µM (inactive) in the assay with SK-MEL-5; 17.1 µM (inactive) in the assay on OVCAR-4. Besides, the GI50 with HT-29 was 11.4 µM (inactive); with SF-295 it was 12.4 µM (inactive); in the assay with A549, 21 µM (inactive); in the assay on RPMI-8226, 2.39 µM (inactive); in the assay with SNB-75, 15.4 µM (inactive); in the assay with SF-539 it was 17.7 µM (inactive). Also, the GI50 with HCT-15 was 9.71 µM; in the assay with NCI-H460 it was 17.3 µM (inactive); with EKVX it was 16.4 µM (inactive); in the assay with SK-OV-3 it was 28.1 µM (inactive).

For the compound `CCc1cccc(NC(=O)c2cc(/C=C/c3ccccc3)nc(S)n2)c1`, the GI50 in the assay with SF-268, in the assay with Malme-3M, in the assay on NCI-H226, in the assay with OVCAR-8, with SK-MEL-5 and in the assay on OVCAR-4 was > 100 µM (inactive) throughout. For the same compound, the GI50 in the assay with HT-29, in the assay with SF-295, with A549, with RPMI-8226, in the assay with SNB-75 and with SF-539 was > 100 µM (inactive) each time. Also, the GI50 in the assay with HCT-15 was over 100 µM; with NCI-H460, > 100 µM (inactive); with EKVX, > 100 µM (inactive); in the assay with SK-OV-3 it was > 100 µM (inactive).

With `COC1O[C@@H]2COC(C)(C)O[C@@H]2C(=O)N1Nc1ccc([N+](=O)[O-])cc1` (stereo partly specified), the GI50 in the assay with SF-268, in the assay with Malme-3M, in the assay on NCI-H226, with OVCAR-8, in the assay on SK-MEL-5 and in the assay with OVCAR-4 was > 100 µM (inactive) in each case. Moreover, the GI50 was 63 µM (inactive) in the assay on HT-29; > 100 µM (inactive) in the assay with SF-295; > 100 µM (inactive) in the assay with A549; 21 µM (inactive) in the assay with RPMI-8226; > 100 µM (inactive) with SNB-75; > 100 µM (inactive) in the assay on SF-539. The GI50 is over 100 µM in the assay on HCT-15, > 100 µM (inactive) in the assay on NCI-H460, > 100 µM (inactive) with EKVX and > 100 µM (inactive) in the assay on SK-OV-3.
